# Measurements from ChEMBL document CHEMBL1154594, “Delta agonist hydroxy bioisosteres: the discovery of 3-((1-benzylpiperidin-4-yl){4-[(diethylamino)carbonyl]phenyl}amino)benzamide with improved delta agonist activity and in vitro metabolic stability” (Bioorg Med Chem Lett, 2009).
# Legend:
# [1] = Intrinsic clearance in human liver microsomes; format: ADME, Microsome
# [2] = Intrinsic clearance in rat liver microsomes; format: ADME, Microsome
SMILES,microsomal CLint [1],microsomal CLint [2]
CCN(CC)C(=O)c1ccc(N(c2cccc(NS(C)(=O)=O)c2)C2CCN(Cc3ccccc3)CC2)cc1,96 µL/min/mg,
CCN(CC)C(=O)c1ccc(N(c2cccc(O)c2)C2CCN(Cc3ccccc3)CC2)cc1,286 µL/min/mg,384 µL/min/mg
CCN(CC)C(=O)c1ccc(N(c2cccc(NC(=O)OC)c2)C2CCN(Cc3ccccc3)CC2)cc1,200 µL/min/mg,
CCN(CC)C(=O)c1ccc(N(c2cccc(NC(C)=O)c2)C2CCN(Cc3ccccc3)CC2)cc1,139 µL/min/mg,
CCN(CC)C(=O)c1ccc(N(c2cccc(C(N)=O)c2)C2CCN(Cc3ccccc3)CC2)cc1,71 µL/min/mg,62 µL/min/mg
